Measured values: patent publication US11680061B2, “Crystal forms C and E of pyrazin-2(1H)-one compound and preparation method therefor” (ZHANGZHOU PIEN TZE HUANG PHARMACEUTICAL CO., LTD., priority 2019, dated 2023)

Key:
[1] = Pharmacokinetic evaluation in mice, single intragastric administration; assay type: in vivo, CD-1 mice (male)
Experimental: Experimental Purposes: To Test the Pharmacokinetics of the Compound in Mice
CD-1 mice (male), vehicle (0.5% (w/v) methylcellulose 0.5% (v/v) Tween 80 aqueous solution), trifluoroacetate salt of compound 0027.
The vehicle was 0.5% (w/v) methylcellulose and 0.5% (v/v) Tween 80 aqueous solution, and the formulation was prepared according to the following procedure: […]
Preparation of formulation for intragastric administration: […]
Animals in groups 1 and 2 were given 5 mg/mL and 30 mg/mL compound by single intragastric administration, respectively, with a dose volume of 10 mL/kg.
The animals were weighed before administration, and the administration volume was calculated according to the body weight.
Whole blood samples (30 μL) were collected at specified times (0.25, 0.5, 1, 2, 4, 6, 8, 24 hours) by saphenous vein collection and the actual time of collection was recorded in the test record. The acceptable error for the collection time points was ±1 minute for time points within 1 hour of administration and ±5% of the theoretical time for other time points.
All blood samples were immediately transferred to labeled commercial centrifuge tubes containing K2-EDTA. […] And the pharmacokinetic parameters were calculated, experimental result: See Table 5.

[2] = Hygroscopicity study by dynamic vapor sorption (DVS); assay type: physicochemical; details: 25° C. and 80% RH
Experimental: Dynamic Vapor Sorption (DVS) Method in the Present Disclosure
Instrument model: SMS DVS Advantage dynamic vapor sorption instrument
Test conditions: samples (10 mg to 15 mg) were placed in a DVS sample tray for testing.
Detailed DVS parameters are as follows:
Balance: dm/dt=0.01%/min (shortest: 10 min, longest: 180 min)
Drying: 120 min under 0% RH
RH (%) test step range: 0% to 90% to 0%
The evaluation classification of hygroscopicity was as follows:
10 to 15 mg of the crystal form C of the compound of formula (II) was placed in the DVS sample tray for testing.
10 to 15 mg of the crystal form E of the compound of formula (II) was placed in the DVS sample tray for testing.

| Tlast ([1]; CD-1 mice, intragastric, 300 mpk, plasma) | pharmacokinetic index in mice ([1]; conclusion in words) | Classification of hygroscopicity [2] | ΔW, hygroscopic weight gain [2] | Compound |
| --- | --- | --- | --- | --- |
| 24.0 h | good | – | – | COc1cc(OC)c(Cl)c(-c2nc(-c3nc(-c4cn(C)nc4C)cnc3N)cn(C)c2=O)c1 |
| – | – | slightly hygroscopic | 1.1% | COc1cc(OC)c(Cl)c(-c2nc(-c3nc(-c4cn(C)nc4C)cnc3N)cn(C)c2=O)c1 [crystal form C of the compound of formula (II)] |
| – | – | slightly hygroscopic | 0.5% | COc1cc(OC)c(Cl)c(-c2nc(-c3nc(-c4cn(C)nc4C)cnc3N)cn(C)c2=O)c1 [crystal form E of the compound of formula (II)] |
